Data published in ChEMBL document CHEMBL1137940, “Discovery of thiophene-2-carboxylic acids as potent inhibitors of HCV NS5B polymerase and HCV subgenomic RNA replication. Part 2: tertiary amides” (Bioorg Med Chem Lett, 2004).
pIC50: −log10 of the molar value.

Legend:
Genome polyprotein = Genome polyprotein (Hepatitis C virus genotype 1a (isolate 1) (HCV), UniProt P26664); experiment: In vitro inhibition of Hepatitis C polymerase.
Huh-7 [1] = experiment: Tested for inhibition of replication of HCV RNA subgenomic replicons in Huh-7 cells by replicon assay; type: functional, cell-based, Homo sapiens
Huh-7 [2] = experiment: Tested for cytotoxic effect to Huh-7 cells containing HCV RNA subgenomic replicons; type: functional; details: Homo sapiens
Huh-7 [3] = experiment: Tested for inhibition of replication of HCV RNA subgenomic replicons in Huh-7 cells by real time PCR; type: functional, cell-based; details: Homo sapiens

Chain of Genome polyprotein (P26664 2421-3011 limits assumed): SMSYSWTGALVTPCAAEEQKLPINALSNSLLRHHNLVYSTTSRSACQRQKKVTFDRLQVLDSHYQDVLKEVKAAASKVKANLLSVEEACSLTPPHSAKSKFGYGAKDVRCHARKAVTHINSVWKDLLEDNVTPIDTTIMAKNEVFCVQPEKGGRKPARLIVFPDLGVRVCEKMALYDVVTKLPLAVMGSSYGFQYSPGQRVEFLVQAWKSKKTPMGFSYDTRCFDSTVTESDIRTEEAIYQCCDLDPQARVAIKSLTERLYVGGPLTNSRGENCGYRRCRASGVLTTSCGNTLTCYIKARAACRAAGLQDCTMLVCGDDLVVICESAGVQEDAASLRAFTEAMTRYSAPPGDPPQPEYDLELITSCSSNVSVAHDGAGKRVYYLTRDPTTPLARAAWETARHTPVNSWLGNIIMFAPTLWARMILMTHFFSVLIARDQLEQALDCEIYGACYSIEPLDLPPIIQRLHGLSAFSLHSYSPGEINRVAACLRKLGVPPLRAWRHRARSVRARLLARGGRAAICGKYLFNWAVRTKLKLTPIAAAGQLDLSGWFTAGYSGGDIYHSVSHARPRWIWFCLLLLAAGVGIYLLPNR

Row | Compound | pIC50 (Genome polyprotein) | pIC50 (Huh-7 [1]; Homo sapiens, Huh-7) | CC50 (Huh-7 [2]) [µM] | pIC50 (Huh-7 [1]; huh-7) | pIC50 (Huh-7 [3])
1 | Cc1ccc(C(=O)N(C)c2cc(-c3ccccc3)sc2C(=O)O)cc1C | < 4.30 |  |  |  | 
2 | Cc1ccc(S(=O)(=O)N(C)c2cc(-c3ccccc3)sc2C(=O)O)c(C)c1 | 5.30 | 4.46 | 115 |  | 
3 | Cc1ccc(C(=O)N(C)c2cc(-c3ccccc3)sc2C(=O)O)c(C)c1 | 5.85 | 4.80 | 160 |  | 
4 | Cc1ccc(S(=O)(=O)Nc2cc(-c3ccccc3)sc2C(=O)O)c(C)c1 |  | 5.30 | 57 |  | 
5 | Cc1cccc(C(=O)N(C)c2cc(-c3ccccc3)sc2C(=O)O)c1 | < 4.30 | < 4.00 | > 200 |  | 
6 | Cc1ccccc1C(=O)N(C)c1cc(-c2ccccc2)sc1C(=O)O | 4.68 |  |  |  | 
7 | CN(C(=O)c1ccccc1)c1cc(-c2ccccc2)sc1C(=O)O | < 4.49 |  |  |  | 
8 | Cc1ccc(C(=O)N(c2cc(-c3ccccc3)sc2C(=O)O)C(C)C)cc1 | 5.52 | 5.30 | > 200 |  | 
9 | Cc1ccc(C(=O)Nc2cc(-c3ccccc3)sc2C(=O)O)cc1 |  | < 4.00 | 118 |  | 
10 | CN(C(=O)c1ccc(C(F)(F)F)cc1)c1cc(-c2ccccc2)sc1C(=O)O | 4.47 | < 4.30 |  |  | 
11 | CC(C)N(C(=O)C1CCCCC1)c1cc(-c2ccccc2)sc1C(=O)O | 5.05 | 4.82 | 69 |  | 
12 | CCN(C(=O)c1ccc(C)cc1)c1cc(-c2ccccc2)sc1C(=O)O | 5.70 | 4.92 | 100 |  | 
13 | CC(C)N(C(=O)c1ccc(Cl)cc1Cl)c1cc(-c2ccccc2)sc1C(=O)O | 5.92 | 5.05 | 62 |  | 
14 | CCc1ccc(C(=O)N(C)c2cc(-c3ccccc3)sc2C(=O)O)cc1 | < 4.30 | < 4.00 |  |  | 
15 | CN(C(=O)c1ccc(Cl)cc1)c1cc(-c2ccccc2)sc1C(=O)O | 5.92 | 4.72 | 88 |  | 
16 | Cc1ccc(C(=O)N(C)c2cc(-c3ccccc3)sc2C(=O)O)cc1 | 5.70 | 4.66 | > 200 |  | 
17 | CC1CCC(C(=O)N(c2cc(-c3ccccc3)sc2C(=O)O)C(C)C)CC1 (stereo in doubt; 16) | 5.82 |  | 123 | 6.22 | 6.52
18 | CC1CCC(C(=O)N(c2cc(-c3ccccc3)sc2C(=O)O)C(C)C)CC1 (stereo in doubt; 17) | 4.62 |  |  | < 4.30 | 
